# In patent US20090312280A1:
# Experiments:
# [1] = tested on: PC-3 (Prostate); assay: cell survival / MTT combination cytotoxicity; type: cell-based, human; details: PC-3; IC50 cytotoxic agent alone / IC50 combination; Compound 1 at 8x EC50 (360 nM)
# [2] = tested on: HT29 (Colon); assay: cell survival / MTT combination cytotoxicity; type: cell-based, human; details: HT29; IC50 cytotoxic agent alone / IC50 combination; Compound 1 at 8x EC50 (360 nM)
# [3] = tested on: MDA-MB-231 (Breast); assay: cell survival / MTT combination cytotoxicity; type: cell-based, human; details: IC50 cytotoxic agent alone / IC50 combination, Compound 1 at 8x EC50 (360 nM)
# [4] = tested on: Colo205 (Colon); assay: cell survival / MTT combination cytotoxicity; type: cell-based, human; details: Colo205; IC50 cytotoxic agent alone / IC50 combination; Compound 1 at 8x EC50 (360 nM)
# [5] = tested on: K562 (Leukemia); assay: cell survival / MTT combination cytotoxicity; type: cell-based, human; details: IC50 cytotoxic agent alone / IC50 combination, Compound 1 at 4x EC50 (180 nM)
# [6] = tested on: HT29 human colon carcinoma xenografts; assay: in vivo chemopotentiation, HT29 xenograft (rat)
# Method: (§1) Experiments 1 to 39 were conducted in mice xenografts. Experiments 40-42 were conducted in rat xenografts. Specifically, irinotecan combination studies were conducted in HT29 and Colo205. Gemcitabine combination studies were conducted in Colo205. Docetaxel combination studies were conducted in Colo205.
# (§2) Gemcitabine and irinotecan are DNA directed cytotoxics known to induce checkpoint activation and subsequent S/G2M-phase arrest. […] Docetaxel is an antimitotics where recent discoveries describe a novel function for CHK1 in the mitotic checkpoint.
# [7] = tested on: Colo205 human colon carcinoma xenografts; assay: in vivo chemopotentiation, Colo205 xenograft; design: species or system mice
# Method: as §1, §2
# [8] = tested on: HT29 human colon carcinoma xenografts; assay: in vivo chemopotentiation, HT29 xenograft (mice)
# Method: as §1, §2
# [9] = Exp 40, irinotecan 100 mg/kg IP Q3d×4, Compound 1 0 mg/kg
# [10] = Exp 41, irinotecan 100 mg/kg IP Q3d×4 + Compound 1 25 mg/kg two hour IV infusion Q3d×4 24 h after
# [11] = Exp 42, irinotecan 100 mg/kg IP Q3d×4 + Compound 1 100 mg/kg two hour IV infusion Q3d×4 24 h after
# [12] = Exp 8, irinotecan 10 mg/kg IP Q3d×4, Compound 1 0 mg/kg
# [13] = Exp 9, irinotecan 10 mg/kg IP Q3d×4 + Compound 1 4 mg/kg IP Q3d×4 24 h after
# [14] = Exp 10, irinotecan 10 mg/kg IP Q3d×4 + Compound 1 20 mg/kg IP Q3d×4 24 h after
# [15] = Exp 11, irinotecan 10 mg/kg IP Q3d×4 + Compound 1 40 mg/kg IP Q3d×4 24 h after
# [16] = Exp 12, irinotecan 10 mg/kg IP Q3d×4, Compound 1 0 mg/kg
# [17] = Exp 13, irinotecan 30 mg/kg IP Q3d×4, Compound 1 0 mg/kg
# [18] = Exp 14, irinotecan 60 mg/kg IP Q3d×4, Compound 1 0 mg/kg
# [19] = Exp 15, irinotecan 10 mg/kg IP Q3d×4 + Compound 1 40 mg/kg IP Q3d×4 24 h after
# [20] = Exp 16, irinotecan 30 mg/kg IP Q3d×4 + Compound 1 40 mg/kg IP Q3d×4 24 h after
# [21] = Exp 17, irinotecan 60 mg/kg IP Q3d×4 + Compound 1 40 mg/kg IP Q3d×4 24 h after
# [22] = Exp 26, irinotecan 10 mg/kg IP Q3d×4, Compound 1 0 mg/kg
# [23] = Exp 27, irinotecan 10 mg/kg IP Q3d×4 + Compound 1 4 mg/kg IP Q3d×4 24 h after
# [24] = Exp 28, irinotecan 10 mg/kg IP Q3d×4 + Compound 1 20 mg/kg IP Q3d×4 24 h after
# [25] = Exp 29, irinotecan 10 mg/kg IP Q3d×4 + Compound 1 40 mg/kg IP Q3d×4 24 h after
# [26] = Exp 30, irinotecan 10 mg/kg IP Q3d×4, Compound 1 0 mg/kg
# [27] = Exp 31, irinotecan 30 mg/kg IP Q3d×4, Compound 1 0 mg/kg
# [28] = Exp 32, irinotecan 60 mg/kg IP Q3d×4, Compound 1 0 mg/kg
# [29] = Exp 33, irinotecan 10 mg/kg IP Q3d×4 + Compound 1 40 mg/kg IP Q3d×4 24 h after
# [30] = Exp 34, irinotecan 30 mg/kg IP Q3d×4 + Compound 1 40 mg/kg IP Q3d×4 24 h after
# [31] = Exp 35, irinotecan 60 mg/kg IP Q3d×4 + Compound 1 40 mg/kg IP Q3d×4 24 h after
# [32] = Exp 36, irinotecan 50 mg/kg IP Q1w×3, Compound 1 0 mg/kg
# [33] = Exp 37, irinotecan 100 mg/kg IP Q1w×3, Compound 1 0 mg/kg
# [34] = Exp 38, irinotecan 50 mg/kg IP Q1w×3 + Compound 1 40 mg/kg IP twice weekly, 24 and 72 h after, three weeks
# [35] = Exp 39, irinotecan 100 mg/kg IP Q1w×3 + Compound 1 40 mg/kg IP twice weekly, 24 and 72 h after, three weeks
# [36] = Exp 18, docetaxel 30 mg/kg, Compound 1 30 mg/kg as printed, IP Q1w×3
# [37] = Exp 19, docetaxel 30 mg/kg + Compound 1 7.5 mg/kg, IP simultaneously Q1w×3
# [38] = Exp 20, docetaxel 30 mg/kg + Compound 1 15 mg/kg, IP simultaneously Q1w×3
# [39] = Exp 21, docetaxel 30 mg/kg + Compound 1 30 mg/kg, IP simultaneously Q1w×3
# [40] = Exp 22, docetaxel 15 mg/kg, Compound 1 15 mg/kg as printed, IP Q1w×3
# [41] = Exp 23, docetaxel 15 mg/kg + Compound 1 15 mg/kg, IP simultaneously Q1w×3
# [42] = Exp 24, docetaxel 15 mg/kg + Compound 1 30 mg/kg, IP simultaneously Q1w×3
# [43] = Exp 25, docetaxel 15 mg/kg Q1w×3 + Compound 1 60 mg/kg, IP simultaneously, Compound 1 two cycles, total 120 mg/kg
compound,measurement,setting,value
CCc1c2c(nc3ccc(O)cc13)-c1cc3c(c(=O)n1C2)COC(=O)[C@]3(O)CC [SN-38],PF50 (Potentiation Factor50),[1],1.3
same,PF50 (Potentiation Factor50),[2],3.7
same,PF50 (Potentiation Factor50),[3],2.4
same,PF50 (Potentiation Factor50),[4],2.1
same,PF50 (Potentiation Factor50),[5],1.9
COc1cccc2c1C(=O)c1c(O)c3c(c(O)c1C2=O)C[C@@](O)(C(=O)CO)C[C@@H]3O[C@H]1C[C@H](N)[C@H](O)[C@H](C)O1 [Doxorubicin],PF50 (Potentiation Factor50),[1],1.5
same,PF50 (Potentiation Factor50),[2],2.2
same,PF50 (Potentiation Factor50),[3],2.25
same,PF50 (Potentiation Factor50),[4],1.1
same,PF50 (Potentiation Factor50),[5],1.1
N.N.O=C([O-])C1(C(=O)[O-])CCC1.[Pt+2] [Carboplatin],PF50 (Potentiation Factor50),[1],3.1
same,PF50 (Potentiation Factor50),[2],3
same,PF50 (Potentiation Factor50),[3],2.55
same,PF50 (Potentiation Factor50),[4],5.4
same,PF50 (Potentiation Factor50),[5],1.9
CCc1c2c(nc3ccc(OC(=O)N4CCC(N5CCCCC5)CC4)cc13)-c1cc3c(c(=O)n1C2)COC(=O)[C@]3(O)CC [Irinotecan],% TGI,[6]; [9],45%
same,Growth delay,[6]; [9],4.0 days
same,% TGI,[6]; [10],58%
same,% poten TGI,[6]; [10],23%
same,Growth delay,[6]; [10],4.0 days
same,% TGI,[6]; [11],77%
same,% TTP,[6]; [11],24%
same,% poten TGI,[6]; [11],58%
same,Growth delay,[6]; [11],8.0 days
same,% TGI,[7]; [12],35%
same,Growth delay,[7]; [12],18 days
same,% TGI,[7]; [13],50%
same,% poten TGI,[7]; [13],22%
same,Growth delay,[7]; [13],18 days
same,% TGI,[7]; [14],69%
same,% TTP,[7]; [14],33%
same,% poten TGI,[7]; [14],52%
same,Growth delay,[7]; [14],24 days
same,% TGI,[7]; [15],59%
same,% TTP,[7]; [15],12%
same,% poten TGI,[7]; [15],37%
same,Growth delay,[7]; [15],20.5 days
same,% TGI,[7]; [16],35%
same,Growth delay,[7]; [16],18 days
same,% TGI,[7]; [17],65%
same,Growth delay,[7]; [17],22 days
same,% TGI,[7]; [18],83%
same,Growth delay,[7]; [18],48 days
same,% TGI,[7]; [19],59%
same,% TTP,[7]; [19],12%
same,% poten TGI,[7]; [19],37%
same,Growth delay,[7]; [19],20.5 days
same,% TGI,[7]; [20],73%
same,% TTP,[7]; [20],54%
same,% poten TGI,[7]; [20],24%
same,Growth delay,[7]; [20],34 days
same,% TGI,[7]; [21],91%
same,% TTP,[7]; [21],8%
same,% poten TGI,[7]; [21],47%
same,Growth delay,[7]; [21],52 days
same,% TGI,[8]; [22],26%
same,Growth delay,[8]; [22],1.75 days
same,% TGI,[8]; [23],26%
same,% TTP,[8]; [23],29%
same,Growth delay,[8]; [23],7.5 days
same,% TGI,[8]; [24],61%
same,% TTP,[8]; [24],39%
same,% poten TGI,[8]; [24],47%
same,Growth delay,[8]; [24],9.5 days
same,% TGI,[8]; [25],57%
same,% TTP,[8]; [25],44%
same,% poten TGI,[8]; [25],42%
same,Growth delay,[8]; [25],10.5 days
same,% TGI,[8]; [26],8%
same,Growth delay,[8]; [26],2.75 days
same,% TGI,[8]; [27],13%
same,Growth delay,[8]; [27],4 days
same,% TGI,[8]; [28],49%
same,Growth delay,[8]; [28],12.5 days
same,% TGI,[8]; [29],22%
same,% TTP,[8]; [29],0%
same,% poten TGI,[8]; [29],15%
same,Growth delay,[8]; [29],1.0 days
same,% TGI,[8]; [30],66%
same,% TTP,[8]; [30],61%
same,% poten TGI,[8]; [30],60%
same,Growth delay,[8]; [30],17.5 days
same,% TGI,[8]; [31],77%
same,% TTP,[8]; [31],28%
same,% poten TGI,[8]; [31],55%
same,Growth delay,[8]; [31],21 days
same,% TGI,[8]; [32],65%
same,Growth delay,[8]; [32],7.5 days
same,% TGI,[8]; [33],70%
same,Growth delay,[8]; [33],11.5 days
same,% TGI,[8]; [34],77%
same,% TTP,[8]; [34],24%
same,% poten TGI,[8]; [34],36%
same,Growth delay,[8]; [34],14 days
same,% TGI,[8]; [35],89%
same,% TTP,[8]; [35],49%
same,% poten TGI,[8]; [35],62%
same,Growth delay,[8]; [35],21 days
CC(=O)O[C@@]12CO[C@@H]1C[C@H](O)[C@@]1(C)C(=O)[C@H](O)C3=C(C)[C@@H](OC(=O)[C@H](O)[C@@H](NC(=O)OC(C)(C)C)c4ccccc4)C[C@@](O)([C@@H](OC(=O)c4ccccc4)[C@H]21)C3(C)C [Docetaxel],% TGI,[7]; [36],85%
same,Growth delay,[7]; [36],54 days
same,% TGI,[7]; [37],90%
same,% poten TGI,[7]; [37],35%
same,Growth delay,[7]; [37],53 days
same,% TGI,[7]; [38],93%
same,% TTP,[7]; [38],36%
same,% poten TGI,[7]; [38],57%
same,Growth delay,[7]; [38],68 days
same,% TGI,[7]; [39],103%
same,% TTP,[7]; [39],50%
same,% poten TGI,[7]; [39],122%
same,Growth delay,[7]; [39],74 days
same,% TGI,[7]; [40],49%
same,Growth delay,[7]; [40],4.75 days
same,% TGI,[7]; [41],65%
same,% TTP,[7]; [41],72%
same,% poten TGI,[7]; [41],31%
same,Growth delay,[7]; [41],19.75 days
same,% TGI,[7]; [42],79%
same,% TTP,[7]; [42],177%
same,% poten TGI,[7]; [42],59%
same,Growth delay,[7]; [42],41.5 days
same,% TGI,[7]; [43],99%
same,% TTP,[7]; [43],145%
same,% poten TGI,[7]; [43],99%
same,Growth delay,[7]; [43],35 days
CO[C@@]12[C@H](COC(N)=O)C3=C(C(=O)C(C)=C(N)C3=O)N1C[C@@H]1N[C@@H]12 [Mytomicin C],PF50 (Potentiation Factor50),[2],3.7
same,PF50 (Potentiation Factor50),[3],1.2
same,PF50 (Potentiation Factor50),[4],5.3
